Test results: patent publication US12421230B2, “Tricyclic heteroaryl compounds useful as IRAK4 inhibitors” (BRISTOL-MYERS SQUIBB COMPANY, priority 2020, dated 2025)

What was measured:
IRAK4 = target: T1, IRAK4 (Homo sapiens, UniProt Q9NWZ3); test: IRAK4 Inhibition Assay; type: biochemical; conditions: ATP 500 μM; fluoresceinated peptide 1.5 μM; IRAK4 0.6 nM; 60 min room temperature; Caliper LABCHIP
T1 sequence (Q9NWZ3 1-460): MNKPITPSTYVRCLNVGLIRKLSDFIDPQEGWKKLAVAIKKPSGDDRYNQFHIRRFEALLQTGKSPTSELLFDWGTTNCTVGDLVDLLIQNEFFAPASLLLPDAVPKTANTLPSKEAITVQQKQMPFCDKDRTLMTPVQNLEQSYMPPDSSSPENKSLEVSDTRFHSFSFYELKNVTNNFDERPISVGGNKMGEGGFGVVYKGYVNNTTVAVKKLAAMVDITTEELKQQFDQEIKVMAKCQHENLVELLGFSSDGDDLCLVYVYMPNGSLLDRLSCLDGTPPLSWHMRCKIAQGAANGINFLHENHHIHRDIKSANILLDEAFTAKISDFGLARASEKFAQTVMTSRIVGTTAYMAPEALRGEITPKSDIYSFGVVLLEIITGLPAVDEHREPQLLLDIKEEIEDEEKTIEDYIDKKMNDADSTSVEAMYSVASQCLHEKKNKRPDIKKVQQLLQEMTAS
Procedure: The assays were performed in U-bottom 384-well plates. The final assay volume was 30 μL prepared from 15 μL additions of enzyme and substrates (fluoresceinated peptide and ATP) and test compounds in assay buffer (20 mM HEPES pH 7.2, 10 mM MgCl2, 0.015% Brij 35 and 4 mM DTT). The reaction was initiated by the combination of IRAK4 with substrates and test compounds. The reaction mixture was incubated at room temperature for 60 min. and terminated by adding 45 μL of 35 mM EDTA to each sample. The reaction mixture was analyzed on the Caliper LABCHIP® 3000 (Caliper, Hopkinton, MA) by electrophoretic separation of the fluorescent substrate and phosphorylated product. Inhibition data were calculated by comparison to no enzyme control reactions for 100% inhibition and vehicle-only reactions for 0% inhibition. The final concentrations of reagents in the assays are ATP, 500 μM; FL-IPTSPITTTYFFFKKK peptide 1.5 μM; IRAK4, 0.6 nM; and DMSO, 1.6%.

Human whole blood = test: IRAK4 Whole Blood Assay; type: cell-based; conditions: stimulated with TLR2 agonist lipoteichoic acid 10 μg/mL for 5 hours, IL-6 levels
Procedure: Human whole blood containing the anti-coagulant ACD-A was plated in 384-well plate (25 μL/well) and incubated with compounds for 60 minutes at 37° C. in a 5% CO2 incubator. The blood was stimulated with a TLR2 agonist, 10 μg/mL final concentration of lipoteichoic acid (Invivogen, San Diego, CA) in 25 μL RPMI (Gibco) for 5 hours in a 5% CO2 incubator. At the end of the incubation, plates were centrifuged at 2300 rpm for 5 minutes. Supernatants were harvested and analyzed for IL-6 levels by Flow Cytometry beads assay (BD Biosciences, San Jose, CA).

Compound | IC50 (IRAK4) | EC50 (Human whole blood)
CC(C)Nc1c(C(=O)NCCC(F)F)cnc2c1[nH]c1cc(C#N)ccc12 [Example 31, 7-cyano-N-(3,3-difluoropropyl)-4-(isopropylamino)-5H-pyrido[3,2-b]indole-3-carboxamide] | 9.5 nM | > 20000 nM
CC(C)(O)CCNC(=O)c1cnc2c([nH]c3cc(C#N)ccc32)c1NCC(F)F [Example 36, 7-cyano-4-((2,2-difluoroethyl)amino)-N-(3-hydroxy-3-methylbutyl)-5H-pyrido[3,2-b]indole-3-carboxamide] | 9.1 nM | 3320 nM
CC(C)Nc1c(C(=O)N[C@H]2C[C@H](C(C)(C)O)C2)cnc2c1[nH]c1cc(C#N)ccc12 [Example 39, 7-cyano-N-((1R,3R)-3-(2-hydroxypropan-2-yl)cyclobutyl)-4-(isopropylamino)-5H-pyrido[3,2-b] indole-3-carboxamide] | 3.9 nM | > 20000 nM
CC(C)(O)CCNC(=O)c1cnc2c([nH]c3cc(C#N)ccc32)c1NC(C)(C)C [Example 40, 4-(tert-butylamino)-7-cyano-N-(3-hydroxy-3-methylbutyl)-5H-pyrido[3,2-b]indole-3-carboxamide] | 6.3 nM | 1600 nM
CC(C)Nc1c(C(=O)NCC(F)(F)CN)cnc2c1[nH]c1cc(C#N)ccc12 [Example 51, N-(3-amino-2,2-difluoropropyl)-7-cyano-4-(isopropylamino)-5H-pyrido[3,2-b]indole-3-carboxamide] | 16 nM | 1550 nM
CC(C)(O)CCNC(=O)c1cnc2c([nH]c3cc(C#N)ccc32)c1N [Example 54, 4-amino-7-cyano-N-(3-hydroxy-3-methylbutyl)-5H-pyrido[3,2-b] indole-3-carboxamide] | 14 nM | > 10000 nM
CCNc1c(C(=O)NCCC2CCCN2)cnc2c1[nH]c1cc(C#N)ccc12 (stereo not drawn) [Example 57, 7-cyano-4-(ethylamino)-N-(2-(pyrrolidin-2-yl)ethyl)-5H-pyrido[3,2-b]indole-3-carboxamide] | 18 nM | 610 nM
CC(C)Nc1c(C(=O)NCCC(C)(C)NC(=O)C2CC2)cnc2c1[nH]c1cc(C#N)ccc12 [Example 59, 7-cyano-N-(3-(cyclopropanecarboxamido)-3-methylbutyl)-4-(isopropylamino)-5H-pyrido[3,2-b]indole-3-carboxamide] | 5.4 nM | > 10000 nM
CC(=O)NC(C)(C)CCNC(=O)c1cnc2c([nH]c3cc(C#N)ccc32)c1NC(C)C [Example 60, N-(3-acetamido-3-methylbutyl)-7-cyano-4-(isopropylamino)-5H-pyrido[3,2-b]indole-3-carboxamide] | 3.8 nM | > 20000 nM
CC(C)Nc1c(C(=O)NCC2CCS(=O)(=O)C2)cnc2c1[nH]c1cc(C#N)ccc12 (stereo not drawn) [Example 61, 7-cyano-N-((1,1-dioxidotetrahydrothiophen-3-yl)methyl)-4-(isopropylamino)-5H-pyrido[3,2-b]indole-3-carboxamide] | 7.2 nM | > 20000 nM
CC(C)Nc1c(C(=O)NC2CCN(S(C)(=O)=O)CC2)cnc2c1[nH]c1cc(C#N)ccc12 [Example 63, 7-cyano-4-(isopropylamino)-N-(1-(methylsulfonyl)piperidin-4-yl)-5H-pyrido[3,2-b]indole-3-carboxamide] | 7.1 nM | > 20000 nM
CC(C)Nc1c(C(=O)NC[C@@H](F)C(C)(C)O)cnc2c1[nH]c1cc(-c3cncs3)ccc12 [Example 66, (R)—N-(2-fluoro-3-hydroxy-3-methylbutyl)-4-(isopropylamino)-7-(thiazol-5-yl)-5H-pyrido[3,2-b]indole-3-carboxamide] | 8.6 nM | 1240 nM
CC(C)Nc1c(-c2cn(CC3CC3)nn2)cnc2c1[nH]c1cc(C#N)ccc12 [Example 74, 3-(1-(cyclopropylmethyl)-1H-1,2,3-triazol-4-yl)-4-(isopropylamino)-5H-pyrido[3,2-b] indole-7-carbonitrile] | 9.2 nM | > 10000 nM
CC(C)Nc1c(-c2cc(C3CCOCC3)no2)cnc2c1[nH]c1cc(C#N)ccc12 [Example 77, 4-(isopropylamino)-3-(3-(tetrahydro-2H-pyran-4-yl)isoxazol-5-yl)-5H-pyrido[3,2-b]indole-7-carbonitrile] | 11 nM | 990 nM
CC(C)Nc1c(-c2cc(C3CCCCN3)no2)cnc2c1[nH]c1cc(C#N)ccc12 (stereo not drawn) [Example 80, 4-(isopropylamino)-3-(3-(piperidin-2-yl)isoxazol-5-yl)-5H-pyrido[3,2-b]indole-7-carbonitrile] | 18 nM | 3310 nM

Now those with a lower IC50 (IRAK4), led by results:

IC50 (IRAK4) | EC50 (Human whole blood) | Compound
3.4 nM | 580 nM | CC(C)Nc1c(C(=O)NCCC2CC2)cnc2c1[nH]c1cc(C#N)ccc12 [Example 34, 7-cyano-N-(2-cyclopropylethyl)-4-(isopropylamino)-5H-pyrido[3,2-b]indole-3-carboxamide]
3 nM | 770 nM | CC(C)Nc1c(C(=O)NCCN2CCOCC2)cnc2c1[nH]c1cc(C#N)ccc12 [Example 35, 7-cyano-4-(isopropylamino)-N-(2-morpholinoethyl)-5H-pyrido[3,2-b]indole-3-carboxamide]
3.1 nM | 510 nM | CC(C)Nc1c(C(=O)NCCC(C)(C)F)cnc2c1[nH]c1cc(C#N)ccc12 [Example 38, 7-cyano-N-(3-fluoro-3-methylbutyl)-4-(isopropylamino)-5H-pyrido[3,2-b]indole-3-carboxamide]
2.5 nM | 740 nM | CC(C)Nc1c(C(=O)NCCC2(O)CC(F)(F)C2)cnc2c1[nH]c1cc(C#N)ccc12 [Example 43, 7-cyano-N-(2-(3,3-difluoro-1-hydroxycyclobutyl)ethyl)-4-(isopropylamino)-5H-pyrido[3,2-b]indole-3-carboxamide]
3.1 nM | 510 nM | CC(C)(O)[C@H]1C[C@H](NC(=O)c2cnc3c([nH]c4cc(C#N)ccc43)c2NC2CC2)C1 [Example 44, 7-cyano-4-(cyclopropylamino)-N-((1R,3R)-3-(2-hydroxypropan-2-yl)cyclobutyl)-5H-pyrido[3,2-b]indole-3-carboxamide]
2.6 nM | 740 nM | CC(C)(O)CCNC(=O)c1cnc2c([nH]c3cc(C#N)ccc32)c1NC1CC1 [Example 46, 7-cyano-4-(cyclopropylamino)-N-(3-hydroxy-3-methylbutyl)-5H-pyrido[3,2-b]indole-3-carboxamide]
3.3 nM | 12300 nM | CC(C)Nc1c(C(=O)NCCN2CCS(=O)(=O)CC2)cnc2c1[nH]c1cc(C#N)ccc12 [Example 62, 7-cyano-N-(2-(1,1-dioxidothiomorpholino)ethyl)-4-(isopropylamino)-5H-pyrido[3,2-b]indole-3-carboxamide]
1.5 nM | 930 nM | CC(C)Nc1c(-c2cn(C3CCNCC3)nn2)cnc2c1[nH]c1cc(C#N)ccc12 [Example 75, 4-(isopropylamino)-3-(1-(piperidin-4-yl)-1H-1,2,3-triazol-4-yl)-5H-pyrido[3,2-b]indole-7-carbonitrile]
2.3 nM | 820 nM | CC(C)Nc1c(-c2cc(C3CCNCC3)no2)cnc2c1[nH]c1cc(C#N)ccc12 [Example 76, 4-(isopropylamino)-3-(3-(piperidin-4-yl)isoxazol-5-yl)-5H-pyrido[3,2-b]indole-7-carbonitrile]
